Columns and labels:
Kasumi-1 cells = experiment: Kasumi-1 xenograft model in SCID mice; type: in vivo
Experimental: Figure 5. […] (A) and (B) Plots of tumor volume (A) and body weight (B). (C) and (D) Tumor size (C) and body weight (D) at sacrifice after 3 weeks of treatment. DOI: http://dx.doi.org/10.7554/eLife.11156.012
Severe combined immunodeficiency (SCID) mice were injected with 30 million Kasumi-1 cells in 100 μl of PBS and 100 μl of Matrigel. […] Tumor volume and body weight were recorded every 2 days. After 3 weeks of treatment, the mice were killed and tumor size and body weight were recorded. All mice were maintained according to National Institutes of Health guidelines and all animal use protocols were approved by the Institutional Animal Care and Use Committee.

[1] = molecular target: T1, p300 HAT domain (residues 1279–1666, Tyr1467Phe) (Homo sapiens, UniProt Q09472, Y1467F); experiment: Thermal stability assay (SYPRO orange); type: binding; details: p300/acetyl-CoA without salicylate 48.6°C
T1 construct: 6-His (N, cleaved yes); made in house; host or cells: E. coli BL21 (DE3)
T1 sequence (Q09472 1279-1666 Y1467F): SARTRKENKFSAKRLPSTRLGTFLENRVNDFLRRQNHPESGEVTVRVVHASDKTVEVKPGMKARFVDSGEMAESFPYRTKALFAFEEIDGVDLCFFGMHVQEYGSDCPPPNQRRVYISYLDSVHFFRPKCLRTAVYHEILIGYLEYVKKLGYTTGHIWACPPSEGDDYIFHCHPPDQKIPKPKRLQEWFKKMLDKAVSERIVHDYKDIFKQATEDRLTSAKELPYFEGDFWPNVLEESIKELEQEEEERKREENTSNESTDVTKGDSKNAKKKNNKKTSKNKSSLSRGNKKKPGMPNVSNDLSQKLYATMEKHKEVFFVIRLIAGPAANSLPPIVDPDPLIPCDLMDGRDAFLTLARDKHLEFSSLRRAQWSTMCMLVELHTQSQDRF
Experimental: To confirm that salicylate binds to p300, we used thermal stability assays. A p300 HAT domain construct (residues 1279–1666) bearing an inactivating Tyr1467Phe mutation to facilitate purification of homogeneously hypoacetylated p300 was expressed and purified with an N-terminal 6-His tag from E. coli cells. The protein was further purified by chromatography and incubated with increasing concentrations of sodium salicylate for 30 min and with SYPRO orange dye (Invitrogen). Thermal melt curves were obtained by heating the protein from 20–95°C and monitoring fluorescence at 590 nm.
A thermal stability assay was used to assess the binding of salicylate to the p300 HAT domain. A p300 HAT domain construct (residues 1279–1666) bearing an inactivating Tyr1467Phe mutation to facilitate purification of homogeneously hypoacetyalted p300 was cloned into a pET-DUET vector with an N-terminal 6-His tag and expressed in BL21 (DE3) E. coli cells. […]
The final concentration of p300 was 2 μM in reaction buffer (0.1 M HEPES, pH 7.5, 150 mM NaCl, and 5 mM -mercaptoethanol). […] Thermal melt curves were obtained by heating the protein from 20–95°C and monitoring fluorescence at 590 nm with a 7900HT Fast Real Time PCR System (Applied Biosystems). […]

GCN5 = molecular target: T2, GCN5 (Homo sapiens, UniProt Q92830); experiment: In vitro HAT assay with recombinant GCN5, histones and 14C acetyl-CoA; type: biochemical
T2 construct: purchased Enzo Life Sciences
T2 sequence (Q92830 whole entry, species assumed): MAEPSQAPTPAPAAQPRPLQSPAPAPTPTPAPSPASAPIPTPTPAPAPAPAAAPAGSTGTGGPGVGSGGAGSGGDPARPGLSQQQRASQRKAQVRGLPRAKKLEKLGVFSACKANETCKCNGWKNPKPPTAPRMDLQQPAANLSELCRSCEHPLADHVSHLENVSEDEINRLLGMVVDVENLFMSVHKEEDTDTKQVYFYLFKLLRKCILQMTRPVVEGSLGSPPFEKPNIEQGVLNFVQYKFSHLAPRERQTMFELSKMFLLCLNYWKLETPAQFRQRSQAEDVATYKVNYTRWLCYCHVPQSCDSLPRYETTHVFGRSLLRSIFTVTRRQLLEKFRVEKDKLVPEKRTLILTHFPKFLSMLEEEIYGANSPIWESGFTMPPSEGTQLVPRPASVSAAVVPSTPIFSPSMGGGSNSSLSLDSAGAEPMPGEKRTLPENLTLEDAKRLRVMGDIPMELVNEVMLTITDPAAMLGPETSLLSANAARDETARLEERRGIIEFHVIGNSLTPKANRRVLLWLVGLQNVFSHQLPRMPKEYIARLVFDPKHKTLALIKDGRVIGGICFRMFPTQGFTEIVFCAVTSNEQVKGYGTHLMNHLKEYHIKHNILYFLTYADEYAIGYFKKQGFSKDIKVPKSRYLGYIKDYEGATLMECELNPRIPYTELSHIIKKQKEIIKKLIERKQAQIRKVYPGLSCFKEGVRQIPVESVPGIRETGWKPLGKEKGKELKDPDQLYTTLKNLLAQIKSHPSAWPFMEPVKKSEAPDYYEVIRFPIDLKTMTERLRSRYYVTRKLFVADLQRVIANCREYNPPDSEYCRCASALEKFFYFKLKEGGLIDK
Experimental: To determine whether salicylate inhibits p300 and other acetyltransferases, we used in vitro acetylation assays with purified histones and a recombinant p300 catalytic domain.
Figure 1. Salicylate inhibits CBP/p300 in vitro. (A) Recombinant p300, CBP, GCN5, or PCAF and histones were incubated with ^14C-labeled acetyl-CoA with or without sodium salicylate, separated by SDS-PAGE, analyzed by autoradiography, and quantified with Image J software. Acetylation levels are relative to those in untreated controls. (B) Thermal stability assay for sodium salicylate binding to the p300 HAT domain. Tm, melting temperature. […] Histone acetylation was measured with several concentrations of acetyl-CoA (C) or histone (D) in the presence or absence of sodium salicylate. […] Acetylation of an H4(3–14) peptide was monitored using direct microfluidic mobility shift analysis as previously described ([Montgomery et al., 2014]; [Fanslau et al., 2010]). […]
Recombinant HAT ([…]), either p300, CBP, PCAF, or GCN5 (Enzo Life Sciences), and 10 µg of histones (Sigma) were incubated with sodium salicylate (Sigma) in reaction buffer (50 mM HEPES, pH 8.0, 10% glycerol, 1 mM) at 30°C for 30 min and then with 0.1 mCi of ^14C acetyl-CoA at 30°C for 60 min. Reactions were stopped by adding 6x sample buffer and analyzed by SDS-PAGE. […]

[2] = 50 or 100 mg/kg orally, daily, 3 weeks

O=C(O)c1cc(-c2ccc(F)cc2F)ccc1O [diflunisal]
Effect on body weight (Kasumi-1 cells; [2]): minimal effects on body weight
Tumor volume (Kasumi-1 cells; [2]): reduced tumor volumes in a dose-dependent manner
Tumor size versus vehicle-treated controls (Kasumi-1 cells; after 3 weeks of treatment): significantly smaller
Tumors at sacrifice (Kasumi-1 cells; higher dose (100 mg/kg), after 3 weeks of treatment): most of the tumors had disappeared

O=C(O)c1ccccc1O [salicylate, salicylic acid]
Thermal unfolding temperature of p300 HAT domain ([1]; 10 mM salicylate): 46.1 °C
Thermal unfolding temperature of p300 HAT domain ([1]; 25 mM salicylate): 40.8 °C
Inhibition of GCN5 acetyltransferase (GCN5): did not detectably inhibit

Reference: paper PMC4931907 (eLife, 2016)
